These results are taken from patent publication US11384381B2, “Reaction accelerating agent” (Kikkoman Corporation, priority 2016, dated 2022).

Holding throughout (format): biochemical
Assay [1] concerns fructosyl peptide oxidase (FPOX-CET). Kind of assay: Acceleration of fructosyl valyl histidine detection reaction with small amount of fructosyl peptide oxidase (Example 7). Conditions: 0.04% (w/v) compound, 0.48 U/ml FPOX-CET; for effect of accelerating the fructosyl valyl histidine detection reaction: versus not added; for Degree of progression of reaction (%) after 7.5 minutes / Degree of progression of reaction (%) after 10 minutes: fructosyl valyl histidine detection reaction, ΔA/ΔA100%; for Degree of progression of reaction (%) after 7.5 minutes: 2.5 minutes after addition of second reagent, not added: 57; for Degree of progression of reaction (%) after 10 minutes: 5 minutes after addition of second reagent, not added: 81. On the procedure:
Next, in this Example, the degree of acceleration of fructosyl valyl histidine detection reaction by the compound of the present invention was determined using a small amount of fructosyl peptide oxidase.
A reagent for fructosyl valyl histidine measurement having the following composition was prepared, and the measurement of fructosyl valyl histidine was carried out using Bio Majesty JCA-BM 1650 (manufactured by JEOL Ltd.).
32 μM fructosyl valyl histidine (manufactured by Kikkoman Biochemifa Company)
30 mM MOPS-NaOH buffer solution, pH 7.0
0.2% (v/v) Triton X-100 (manufactured by Wako Pure Chemical Industries, Ltd.)
(§1) 10 U/ml peroxidase PEO-301 (Toyobo Co., Ltd.)
(§2) 0.023 mM 10-(carboxymethylaminocarbonyl)-3,7-bis(dimethylamino)phenothiazine sodium (DA-67, manufactured by Wako Pure Chemical Industries, Ltd.)
(§3) 0.04% (w/v) of the compound of Comparative Example 2, any one compound of the present invention, or compound-free (Comparative Example 1) ion-exchange water as shown in Table 1
10 mM MOPS-NaOH buffer solution, pH 7.0
0.48 U/ml FPOX-CET (manufactured by Kikkoman Biochemifa Company)
8 μl of the sample was added to 96 μl of the first reagent-B, and the mixture was incubated at 37° C. for 5 minutes. Then, 24 μl of the second reagent-D was added thereto, and the quantitative reaction of hydrogen peroxide resulting from the oxidation of fructosyl valyl histidine was allowed to progress at 37° C. for 5 minutes. The absorbance (A694 and A751) of the reaction solution for light at wavelengths of 694 nm and 751 nm was measured over time for 10 minutes after the mixing of the sample with the first reagent-B to determine the value of subtraction of A751 from A694. i.e., the value A694/751. Subsequently, ΔA was calculated by subtracting, from A694/751, the value of (104/128) times A694/751 4.8 minutes after the mixing of the sample with the first reagent-B. Incidentally, 5 minutes after the mixing of the sample with the first reagent-B represents the time immediately before the addition of the second reagent-D.
Next, ΔA calculated in this Example was divided by […] defined in Example 6 to calculate the degree of progression of fructosyl valyl histidine detection reaction. The degree of progression of fructosyl valyl histidine detection reaction 7.5 and 10 minutes after the mixing of the sample with the first reagent-B (in other words, 2.5 and 5 minutes after the addition of the second reagent-D) is shown in Table 4.

Assay [2] relates to fructosyl amino acid oxidase (FAOD-E). Kind of assay: Fructosyl valine detection reaction completed with excess fructosyl amino acid oxidase (Example 8). Conditions: 0.04% (w/v) compound, 21.4 U/ml FAOD-E (excess), 32 μM fructosyl valine, pH 8.0, 37° C.; for ΔA9 min: change in A694-A751 9 minutes after mixing; for ΔA10 min: change in A694-A751 10 minutes after mixing, defined as ΔA100%. On the procedure: In this Example, the amount of change in absorbance is determined when the detection reaction of the substrate fructosyl valine was completed using an excess amount of fructosyl amino acid oxidase (FAOD-E), which is an oxidase.
A reagent for fructosyl valine measurement having the following composition was prepared, and the measurement of fructosyl valine using fructosyl amino acid oxidase was carried out using Bio Majesty JCA-BM 1650 (manufactured by JEOL Ltd.).
(§4) 32 μM fructosyl valine (manufactured by Kikkoman Biochemifa Company)
(§5) 30 mM MOPS-NaOH buffer solution, pH 8.0
(§6) 0.2% (v/v) NYMEEN F-215 (manufactured by NOF Corp.)
as §1
0.023 mM 10-(carboxymethylaminocarbonyl)-3,7-bis(dimethylamino)phenothiazine sodium
(DA-67, manufactured by Wako Pure Chemical Industries, Ltd.)
as §3
(§7) 10 mM MOPS-NaOH buffer solution, pH 8.0
21.4 U/ml FAOD-E (manufactured by Kikkoman Biochemifa Company)
(§8) 8 μl of the sample was added to 96 μl of the first reagent-C, and the mixture was incubated at 37° C. for 5 minutes. Then, 24 μl of the second reagent-E was added thereto, and the quantitative reaction of hydrogen peroxide resulting from the oxidation of fructosyl valine was allowed to progress at 37° C. for 5 minutes. The absorbance (A6% and A751) of the reaction solution for light at wavelengths of 694 nm and 751 nm was measured over time for 10 minutes after the mixing of the sample with the first reagent-C to determine the value of subtraction of A751 from A694, i.e., the value A694/751. Subsequently, ΔA was calculated by subtracting, from A694/751, the value of (104/128) times A694/751 4.8 minutes after the mixing of the sample with the first reagent-C. Incidentally, 4.8 minutes after the mixing of the sample with the first reagent-C represents the time immediately before the addition of the second reagent-E. ΔA 9 minutes and 10 minutes after the mixing of the diluted sample with the first reagent-C (ΔA9min and ΔA10min) are shown in Table 5.
In other words, it can be recognized that the quantitative reaction of fructosyl valine, i.e., the quantitative reaction of hydrogen peroxide resulting from the oxidation of fructosyl valine, was completed in 10 minutes after the mixing of the diluted sample with the first reagent-C. Accordingly, in Examples 8 and 9, ΔA10min in each Comparative Example or the present invention was defined as ΔA when 100% of the quantitative reaction of HbA1c progressed under each condition (ΔA100%).

The test system is the same in assay [3]. Put plainly: Acceleration of fructosyl valine detection reaction with small amount of fructosyl amino acid oxidase (Example 9). As to conditions: 0.04% (w/v) compound, 2.14 U/ml FAOD-E; for effect of accelerating fructosyl valine detection reaction: versus not added; for Degree of progression of reaction (%) after 7.5 minutes / Degree of progression of reaction (%) after 10 minutes: fructosyl valine detection reaction, ΔA/ΔA100%; for Degree of progression of reaction (%) after 7.5 minutes: 2.5 minutes after addition of second reagent, not added: 29; for Degree of progression of reaction (%) after 10 minutes: 5 minutes after addition of second reagent, not added: 48. As to the method: Next, in this Example, the degree of acceleration of fructosyl valine detection reaction by the compound of the present invention was determined using a small amount of fructosyl amino acid oxidase.
A reagent for fructosyl valine measurement having the following composition was prepared, and the measurement of fructosyl valine was carried out using Bio Majesty JCA-BM1650 (manufactured by JEOL Ltd.).
as §4, §5, §6, §1, §2, §3, §7
2.14 U/ml FAOD-E (manufactured by Kikkoman Biochemifa Company)
as §8, with “second reagent-F” for “second reagent-E”, “absorbance (A694” for “absorbance (A6%”, “Incidentally, 5” for “Incidentally, 4.8”, “second reagent-F.” for “second reagent-E. ΔA 9 minutes and 10 minutes after the mixing of the diluted sample with the first reagent-C (ΔA9min and ΔA10min) are shown in Table 5.”
Next, ΔA calculated in this Example was divided by ΔA100% defined in Example 8 to calculate the degree of progression of fructosyl valine detection reaction. The degree of progression of fructosyl valine detection reaction 7.5 and 10 minutes after the mixing of the sample with the first reagent-C (in other words, 2.5 and 5 minutes after the addition of the second reagent-F) is shown in Table 6.

As to `Cc1nn(-c2cc(S(=O)(=O)[O-])ccc2Cl)c(O)c1N=Nc1ccccc1.[Na+]` [Acid Yellow 34], in assay [1], the “effect of accelerating the fructosyl valyl histidine detection reaction” value is listed as “effect of accelerating the fructosyl valyl histidine detection reaction”, the “Degree of progression of reaction (%) after 7.5 minutes” value (shortened to “Degree … (%) after 7.5 minutes”) turned out to be 62% and the “Degree of progression of reaction (%) after 10 minutes” value (“Degree … (%) after 10 minutes” below) is listed as 86%.
In assay [2], `COc1cc(N=Nc2ccc(N)cc2)c(C)cc1N` [Disperse Diazo Black 3BF] registered a ΔA9 min of 0.062 and a ΔA10 min of 0.061. In assay [3], the “effect of accelerating fructosyl valine detection reaction” value is reported as “effect of accelerating fructosyl valine detection reaction”, the “Degree … (%) after 7.5 minutes” value worked out at 86% and the “Degree … (%) after 10 minutes” value is recorded as 89%.
With Xylene Fast Yellow 2G, in assay [1], the “effect of accelerating the fructosyl valyl histidine detection reaction” value is listed as “effect of accelerating the fructosyl valyl histidine detection reaction”, the “Degree … (%) after 7.5 minutes” value worked out at 63% and the “Degree … (%) after 10 minutes” value is reported as 96%.
For the compound `O=C([O-])c1cc(N=Nc2cccc([N+](=O)[O-])c2)ccc1O.[Na+]` [Alizarin Yellow GG], in assay [2], the ΔA9 min is 0.044 and the ΔA10 min came to 0.046. Moreover, in assay [3], the “effect of accelerating fructosyl valine detection reaction” value is recorded as “effect of accelerating fructosyl valine detection reaction”, the “Degree … (%) after 7.5 minutes” value came to 38% and the “Degree … (%) after 10 minutes” value stood at 62%.
As to `O=C(O)c1cc(N=Nc2ccc3cc(S(=O)(=O)O)ccc3c2)ccc1O.[Na]` [Chrome Yellow], in assay [1], the “effect of accelerating the fructosyl valyl histidine detection reaction” value is “effect of accelerating the fructosyl valyl histidine detection reaction”, the “Degree … (%) after 7.5 minutes” value came to 62% and the “Degree … (%) after 10 minutes” value worked out at 86%. In assay [2], this compound gave a ΔA9 min of 0.066 and a ΔA10 min of 0.067. Besides, in assay [3], the “effect of accelerating fructosyl valine detection reaction” value is on record as “effect of accelerating fructosyl valine detection reaction”, the “Degree … (%) after 7.5 minutes” value worked out at 43% and the “Degree … (%) after 10 minutes” value is reported as 68%.
In assay [2], `O=C([O-])c1cc(N=Nc2ccc([N+](=O)[O-])cc2)ccc1O.[Na+]` [Mordant Orange 1] registered a ΔA9 min of 0.049 and a ΔA10 min of 0.051. In assay [3], the “effect of accelerating fructosyl valine detection reaction” value was “effect of accelerating fructosyl valine detection reaction”, the “Degree … (%) after 7.5 minutes” value was 37% and the “Degree … (%) after 10 minutes” value came to 59%.
With `COc1cc(N=Nc2cccc(S(=O)(=O)[O-])c2)ccc1NC(=O)Nc1ccc(N=Nc2ccc(O)c(C(=O)[O-])c2)cc1.[Na+].[Na+]` [Direct Yellow 44], in assay [1], the “effect of accelerating the fructosyl valyl histidine detection reaction” value is reported as “effect of accelerating the fructosyl valyl histidine detection reaction”, the “Degree … (%) after 7.5 minutes” value is on record as 66% and the “Degree … (%) after 10 minutes” value came to 88%.
